Laboratory results as given in publication PMC6891289 (Molecules, 2019).
Like-named read-outs stand apart in the source and are kept apart here.

How the values were obtained:
[1] = biological target: T1, acetylcholinesterase from Electrophorus electricus (electric eel) (type VI-S) (Electrophorus electricus, UniProt O42275); experiment: Ellman assay, […] nm, 4PL fit; assay type: biochemical
T1 construct: gene ache; commercial native enzyme from Sigma, type VI-S lyophilized powder

[2] = biological target: T1, acetylcholinesterase from Electrophorus electricus (electric eel) (type VI-S); experiment: Ellman assay, […] nm, Michaelis-Menten fit; assay type: biochemical; settings: no inhibitor, 0.1 to 1.6 mM substrate, phosphate buffer pH 8, 37 °C
[3] = read-out: no inhibition up to 50 μg/mL

T1 sequence (O42275 24-633): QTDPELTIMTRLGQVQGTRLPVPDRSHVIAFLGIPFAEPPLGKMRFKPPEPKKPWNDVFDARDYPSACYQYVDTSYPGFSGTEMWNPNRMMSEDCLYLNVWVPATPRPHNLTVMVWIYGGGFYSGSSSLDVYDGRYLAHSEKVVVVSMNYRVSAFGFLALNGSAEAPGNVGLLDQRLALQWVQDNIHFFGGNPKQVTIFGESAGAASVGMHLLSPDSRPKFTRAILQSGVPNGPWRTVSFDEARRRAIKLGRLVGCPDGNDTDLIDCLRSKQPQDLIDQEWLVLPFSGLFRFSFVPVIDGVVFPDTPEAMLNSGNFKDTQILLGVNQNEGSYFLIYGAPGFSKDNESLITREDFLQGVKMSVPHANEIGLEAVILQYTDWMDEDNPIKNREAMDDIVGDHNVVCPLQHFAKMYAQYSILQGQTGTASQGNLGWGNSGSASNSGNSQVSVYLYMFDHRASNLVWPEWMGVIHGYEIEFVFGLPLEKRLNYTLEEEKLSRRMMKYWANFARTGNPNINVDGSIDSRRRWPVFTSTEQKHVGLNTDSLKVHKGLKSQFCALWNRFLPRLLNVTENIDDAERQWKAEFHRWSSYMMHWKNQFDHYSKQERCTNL

Compound | IC50 [1, 3] [µM] | IC50 ([1]; read-out: IC50) [µM] | further results
COc1cc(C(=O)O)ccc1O [vanillic acid] | > 297 | – | –
COc1ccc2cc3[n+](cc2c1OC)CCc1cc2c(cc1-3)OCO2 [berberine] | – | 2.8 | –
COc1cc(/C=C/C(=O)O)ccc1O [ferulic acid] | > 257 | – | –
CC(=O)SCC[N+](C)(C)C [Acetylthiocholine chloride] | – | – | Km [2]: 330 µM
O=C(O)c1cc(O)c(O)c(O)c1 [gallic acid] | – | 46.4 | –
